From patent US10160972B2, “Methods and materials for treating cancer” (Mayo Foundation for Medical Education and Research, priority 2012, dated 2018)

Experiments:
[1] = test system: Caki1, A498, Caki2, and ACHN ccRCC cells; test: Gene array expression analysis; assay type: cell-based, human; settings: 75 nM, 24 hours, vs DMSO control
Protocol: Gene array expression analysis was performed using Affymetrix Human Genome U133 Plus 2.0 Array chip. The details of the data processing and methodology were previously described in (Tun H W, Marlow L A, von Roemeling C A, Cooper S J, Kreinest P, Wu K, et al. Pathway signature and cellular differentiation in clear cell renal cell carcinoma. PLoS One. 2010; 5:e10696). Gene expression data was deposited at Gene Expression Omnibus (Accession#GSE41485). Pathway analysis was performed using IPA (Ingenuity® Systems).

[2] = test system: A498 cells; test: qPCR of five ER stress genes; assay type: cell-based, human
Protocol: (§1) An RNAqueous Midi Kit was utilized to extract and purify RNA from cell lines. Human tissue RNA was prepared using TRIzol® per manufacturer's protocol followed by purification using the RNAqueous Midi Kit. The O.D. 260/280 ratio of the mRNA was at least 1.8 and the 18s/28s bands were verified on a 1% agarose gel. cDNA was prepared from purified RNA samples using High Capacity cDNA Reverse Transcriptase Kit per manufacturer's instruction. TaqMan®Fast Universal PCR Master Mix and TaqMan®FAMTM dye-labeled probes including POLR2A (Hs00172187_m1) (normalization control), SCD1 (Hs01682761_m1), HSPA5 (Hs99999174_m1), CEBPβ (CEBPB Hs00270923_s1), GADD45A (Hs00169255_m1), DDIT3 (Hs01090850_m1), and HERPUD1 (Hs01124269_m1) were combined with prepared cDNA samples to analyze relative mRNA expression via qPCR. Fold change values were compared between normal and tumor, non-target scrambled lentiviral and target lentiviral infected, and DMSO vs. A939572 treated samples using the ΔΔCt method (Schmittgen T D, Livak K J. Analyzing real-time PCR data by the comparative C(T) method. Nat Protoc. 2008; 3:1101-8).
(§2) In order to validate the specificity of ER stress induction mediated by both A939572 and shSCD780, rescue assays were performed using OA-BSA in Caki1 and A498 cells qPCR analysis of five ER stress genes identified in the gene array including BiP, CHOP, HERPUD1 (homocysteine-inducible, ER-stress inducible, ubiquitin-like-1), GADD45a (DNA damage inducible transcript 1, DDIT1), and CEBPβ (CCAAT/enhancer binding protein beta) were examined.

[3] = test system: Caki1 cells; test: qPCR of five ER stress genes; assay type: cell-based, human
Protocol: as §1, §2

[4] = test system: MiaPaca cells; test: Cell number growth inhibition assay; assay type: cell-based, human; settings: cell number as percent of DMSO control
Protocol: (§3) A number of cancer cell lines were tested to determine whether SCD1 protein expression correlates with growth inhibition of an SCD1 inhibitor in human cancer cell lines.
(§4) Cells (20,000/ml) were plated in 12 well cell culture plates, allowed to attach and treated with the indicated dose of SCD1 inhibitor ([…]) or standard of care (gemcitabine). Cell number was counted using a Coulter Counter. As show in FIG. 7, the data are expressed as percent of DMSO control. Each value represents triplicates. Western analysis for SCD1 protein expression was performed on each cell line with beta-actin as the loading control.

[5] = test system: Panc cells; test: Cell number growth inhibition assay; assay type: cell-based, human
Protocol: as §3, §4

[6] = test system: A498 ccRCC xenografts; test: IHC analysis of resected xenograft tumors
Protocol: The TMAs were mounted on slides from paraffin-embedded blocks according to IHC procedure and samples were blocked with Diluent that contained Background Reducing Components (Dakocytomation) for 30 min and then probed for SCD1, Ki67, Caspase-3, CD31, phospho-mTOR, DDIT3, and XBP1. […] Stain scoring was done using algorithms generated with Imagescope software created by a histologist. H-scores were calculated based upon signal intensity (0-3+) using the formula: [(1+%×1)+(2+%×2)+(3+%×3)], intensity (I)-scores were calculated by dividing signal intensity by area, and nuclear (N)-scores were calculated by dividing % positive nuclei by total nuclei examined per area. Cases where insufficient tumor tissue presented were excluded from the study. 20× images were obtained using Scanscope XT and Imagescope software.
IHC analysis of tumors resected from each treatment group was analyzed for proliferation, angiogenesis, and cell death (FIG. 6B).

[7] = test system: ATF6 luciferase reporter in Caki1 cells
Protocol: (§5) For transient transfection, Caki1 and A498 cells were transfected using Lipofectamine 2000. Cells treated with DMSO vs. A939572 or infected using shSCD780 lentiviral constructs vs. NT control were harvested after 48 hrs using Promega's Dual Luciferase assay kit per the manufacturer's protocol and luciferase activity was measured using a Veritas Luminometer; reported as relative luminescence.
(§6) Caki1 and A498 cells transfected with an ATF6 luciferase reporter (p5xATF6-GL3) were treated with a 75 nM dose of A939572 or were infected with shSCD780. Resulting luminescence was measured after 48 hours.

[8] = test system: ATF6 luciferase reporter in A498 cells
Protocol: as §5, §6

In the case of `CNC(=O)c1cccc(NC(=O)N2CCC(Oc3ccccc3Cl)CC2)c1` [A939572], the “expression of ER stress response genes associated with UPR” value [1] is reported as “increased expression of ER stress response genes”, the “ER stress gene expression with addition of OA-BSA” value ([2]; A498, + OA-BSA) is reported as “blocked” and the “mRNA expression of ER stress genes BiP, CHOP, HERPUD1, GADD45a, CEBPβ” value ([2]; A498, vs DMSO+BSA or NT control) is reported as “significantly increased levels”. For the same compound, the “ER stress gene expression with addition of OA-BSA” value ([3]; Caki1, + OA-BSA) was “blocked”, the “mRNA expression of ER stress genes BiP, CHOP, HERPUD1, GADD45a, CEBPβ” value ([3]; Caki1, vs DMSO+BSA or NT control) was “significantly increased levels” and the growth inhibition [4] was “growth inhibited in a dose dependent fashion”. For the same compound, the growth inhibition [5] was “growth inhibited at only high levels”, the “cell death, cleaved caspase-3 (CC3)” value ([6]; vs placebo / other groups) was “moderate increase” and the “proliferation, percent positivity of nuclear Ki67 staining” value ([6]; vs placebo control) was “decreased proliferation”. The “reporter activation with addition of OA-BSA” value ([7]; Caki1, + OA-BSA) was “significantly reduced reporter activation”, the “luciferase activity, fold change induction” value ([7]; Caki1, +BSA, 75 nM A939572 or shSCD780, 48 hours, vs DMSO and NT controls) was 1.6 fold change and the “reporter activation with addition of OA-BSA” value ([8]; A498, + OA-BSA) was “significantly reduced reporter activation”. The “luciferase activity, fold change induction” value ([8]; A498, +BSA, 75 nM A939572 or shSCD780, 48 hours, vs DMSO and NT controls) was 3.8 fold change.
